Source: publication PMC11675744, “Grape Pomace as a Source of Phenolics for the Inhibition of Starch Digestion Enzymes: A Comparative Study and Standardization of the Efficacy” (Foods, 2024)

Target: T1, rat intestinal α-glucosidase
T1 construct: gene Mgam; crude supernatant of rat intestinal acetone powder (Sigma N1377-5G), brush border enzymes, not purified
Assay: p-nitrophenol release, absorbance […] nm, five-point dose-response
Assay type: biochemical
Conditions: substrate p-nitrophenyl α-D-glucoside (1 mM stock, 200 µL in 1 mL), phosphate pH 6.8, 37 °C, 5 min pre-incubation; crude extract

`C[C@H]1O[C@H](O[C@H]2[C@H](O)[C@@H](O)[C@@H](O[C@H]3[C@H](O)[C@@H](O)C(O)O[C@@H]3CO)O[C@@H]2CO)[C@H](O)[C@@H](O)[C@@H]1N[C@H]1C=C(CO)[C@@H](O)[C@H](O)[C@H]1O` (stereo partly shown) [acarbose] showed an I50 of 100 µg/mL.
